Test results from patent publication US20140170096A1, “SUNSCREEN COMPOSITIONS” (priority 2011, published 2014).

Key:
coral reefs = assay: Summary of eco-compatibility of tested products with coral reefs; parameters: species or system Acropora sp.
Experimental: In order to select the most eco-compatible products for each group of compounds (i.e., base cream, fragrance, antioxidants and filters) the following criteria were selected:
1. coral bleaching level; 2. degree of release of symbiotic zooxanthellae; 3. zooxanthellae health conditions; 4. viral enrichment in the incubation medium with respect to controls.

[1] = test system: prokaryotes in water surrounding coral nubbins; assay: Prokaryotic (bacterial) abundance and enrichment in seawater surrounding coral nubbins (microcosm incubation); conditions: seawater surrounding Acropora sp. nubbins
Experimental: (§1) In situ tests were performed on nubbins (i.e., small branches of about 3-6 cm) of the stony coral Acropora sp. The nubbins were incubated in microcosms in presence of known concentrations of various ingredients potentially to be included in the composition of the eco-compatible sunscreen cream. In particular, coral nubbins (including more than 3000 polyps each) were collected by scuba divers from the same colony, located at a depth of about 3 m on the edge of the reef slope. Sampling of nubbins was performed by means of forceps. The nubbins were washed with seawater filtered onto 0.02-μm filters to eliminate viruses and prokaryotes. Each microcosm was prepared with a replicate set of nubbins (n=3) immersed in sterile polyethylene bags (Whirl-pack, Nasco, Fort Atkinson, Wis., USA) filled with 2 L filtered seawater. A total of 27 microcosms were prepared, in order to test 20 ingredients with the respective positive and negative controls. The microcosms were incubated at in situ temperature and light conditions for 72 hours.
(§2) After subsampling, sea water was transferred into sterile test tubes without use of fixatives and stored at −20° C. until laboratory analysis for quantification of viral and prokaryotic abundance. Once in laboratory, the water samples were immediately processed. Briefly, 200 uL sea water were diluted 1:10 with prefiltered MilliQ water, through 0.02-μm pore filters (Anodisc filter; 25-mm diameter, Al2O3; Whatman) and stained with 20 μL SYBR Green (stock solution diluted 1:20; Invitrogen, Carlsbad, Calif., USA). […] Slides were stored at −20° C. until microscopy analysis. Virus and prokaryote counts were obtained by epifluorescence microscopy (magnification, ×1000; Zeiss Axioplan) by examining at least 10 optical fields, that is, at least 200 cells or viruses per replicate. Viral (and prokaryotic) enrichment was calculated as ratio between virus (and prokaryote) abundances and virus (and prokaryote) abundance at the […] of the experiment.

[2] = test system: viruses in water surrounding coral nubbins; assay: Viral abundance and viral enrichment in seawater surrounding coral nubbins (microcosm incubation); conditions: for Total viral abundances (TVN): seawater surrounding Acropora sp. nubbins, compound concentration per Table 2; for Viral enrichment factor (VEF): ratio of viral abundances, end vs start of incubation
Experimental: as §1, §2

[3] = test system: stony coral Acropora sp. nubbins; assay: Quantification of coral bleaching by colorimetric (CMYK) analysis of digital photographs; assay type: in vivo; conditions: Acropora sp. (stony coral), in vivo, 72 h
Experimental: as §1
Photographs were taken under identical illumination with a Canon PowerShot A620 digital camera (Canon Inc., Tokyo, Japan) with a scale meter on the background. The photos were successively analyzed with a photo-editing software (Adobe Photoshop CS2) for color composition [cyan, magenta, yellow, black (CMYK)]. Levels of bleaching were measured as the difference between the corals' color at the beginning of the experiment and after treatments. Variations in the percentage of the different color components (CMYK) were analyzed with one-way analysis of variance (ANOVA). To rank the bleaching effect due to the compounds tested, a Bray-Curtis similarity matrix was prepared and a multidimensional scaling analysis of the shifts in CMYK color composition of treated corals was performed using Primer 5.0 software (Primer-E Ltd., Plymouth, UK). Bleaching rates were measured as the dissimilarity percentage in CMYK color composition between treated and control corals using the SIMPER tool of Primer 5.0 software (Primer-E Ltd).

[4] = test system: symbiotic zooxanthellae released from coral nubbins; assay: Zooxanthellae counts: zooxanthellae released in water surrounding coral nubbins; assay type: in vivo, Acropora sp.; conditions: for Healthy zooxanthellae released / Pale zooxanthellae released / Total zooxanthellae released / Transparent (i.e., dead) zooxanthellae released: end of incubation (72 h); for Percentage of healthy zooxanthellae released / Percentage of pale zooxanthellae released / Percentage of transparent zooxanthellae released: of total released, end of incubation
Experimental: as §1
Subsamples (50 mL) of seawater surrounding coral nubbins were collected at the start of the experiment (T0) and after 6, 12, 24, 36, 48 and 72 hours of incubation. The subsamples were fixed in 3% glutaraldehyde and then about 6.0 ml of each replicate was filtered through 2.0-μm polycarbonate filters. Filters were mounted on glass slides and zooxanthellae counted under epifluorescence microscopy (Zeiss Axioplan, Carl Zeiss Inc., Jena, Germany; ×400 and ×1000) using standard and UV light.

| Eco-compatibility (coral reefs) | Bacterial abundance (total bacterial number, TBN) ([1]; incubation 0 (start)) | Bacterial abundance (total bacterial number, TBN) ([1]; incubation 12 h) | Total viral abundances (TVN) ([2]; incubation 0 (start)) [viruses ml^−1] | Total viral abundances (TVN) ([2]; incubation 12 h) [viruses ml^−1] | Viral enrichment factor (VEF) [2] | Number of color channels (of 4, CMYK) significantly altered [3] | Healthy zooxanthellae released [4] [cells ml^−1] | Pale zooxanthellae released [4] [cells ml^−1] | Total zooxanthellae released [4] [cells ml^−1] | Transparent (i.e., dead) zooxanthellae released [4] [cells ml^−1] | Percentage of healthy zooxanthellae released [4] [%] | Percentage of pale zooxanthellae released [4] [%] | Percentage of transparent zooxanthellae released [4] [%] | Structure (SMILES) |
| --- | --- | --- | --- | --- | --- | --- | --- | --- | --- | --- | --- | --- | --- | --- |
| Compatible | 3.62E+04 | 1.54E+06 | 1.03E+05 | 1.98E+06 | 18.92 | 1 | 1.07E+03 | 5.30E+03 | 1.23E+04 | 5.97E+03 | 9 | 43 | 48 | CCCCCCCCCCCCCCCC(=O)OC/C=C(C)/C=C/C=C(C)/C=C/C1=C(C)CCCC1(C)C [System D19, retinyl palmitate] |
| Compatible | 3.62E+04 | 1.71E+06 | 2.47E+05 | 1.97E+06 | 8.09 | 1 | 6.04E+02 | 7.18E+03 | 1.46E+04 | 6.84E+03 | 4 | 49 | 47 | CC1=C(/C=C/C(C)=C/C=C/C(C)=C/CO)C(C)(C)CCC1 [System D20, Retinol] |
